pIC50: −log10 of the molar value.

A word on the IC50: it is the concentration at which inhibition is half-maximal. As a reminder, the pIC50 is the negative decadic logarithm of the IC50, by convention in mol/L. Read a low pIC50 as a large IC50.

The subject of one test is MDA-MB-231. The experiment in a line: Cell growth inhibition assay (SRB), MDA-MB-231. Format: cell-based, Human. Conditions: MDA-MB-231 (breast), 96 hours. An excerpt: (§1) Cancer cells used in this study to determine the effect of quinazoline compounds were obtained from the following sources: Human OVCAR-3 (ovary), MCF-7 (breast, hormone-dependent), Hs 578T (breast), MDA-MB-231 (breast), HeLa (cervix), PC3 (prostate), HepG2 (liver), A549 (lung), Caki-1 (kidney), HT-29 (colon), HCT116 (colon) and PANC-1 (pancreas) from the American Type Culture Collection (ATCC) (Manassas, Va.); U251 (brain) from Riken (Japan); MKN-45 (stomach) from DSMZ (Germany); UMRC2 (kidney) and Lox IMVI (melanoma) from the United States National Cancer Institute (Bethesda, Md.). All cell lines except Hs 578T, MDA-MB-231, HCT116, UMRC2, Caki-1 and PANC-1 were grown in RPMI1640 medium (Invitrogen, Carlsbad, Calif.) supplemented with 10% fetal bovine serum (“FBS”), 1 mM sodium pyruvate, 10 mM HEPES and 100 U/ml penicillin and 100 μg/ml streptomycin (“P/S”). Hs 578T, MDA-MB-231, HCT116, UMRC2, Caki-1 and PANC-1 cells were maintained in Dulbecco's modified Eagle's medium (“DMEM”, Invitrogen) supplemented with 10% FBS, P/S, 10 mM HEPES and 2 mM L-glutamine. All cells were incubated at 37° C. under humidified 5% CO2.
(§2) The growth inhibition of the substituted quinazoline derivative compounds against a variety of human tumor cells was evaluated. The relative importance of particular substituent groups on the compounds was also studied. The substituted quinazoline derivative compounds, prepared as described above, were tested, along with DMSO as a control.
(§3) The growth inhibition assay of various compounds against 15 human tumor cell lines was performed using the Sulforhodamnine B (“SRB”) method (Skehan et al., J. National Cancer Institute, 82: 1107-1112 (1990)). Briefly, exponentially growing tumor cells were seeded into a 96-well plate at a density of 2-3×10^3 cells/well and treated with quinazoline compounds the next day. Triplicate wells were used for each treatment. The cells were. incubated with the various compounds for 96 hours at 37° C. in a humidified 5% CO2 atmosphere. After 96-hour incubation, cells were fixed with 10% trichloroacetic acid (“TCA”), incubated for 1 hour at 4° C., and washed 3 times with tap water. Subsequently cells were stained with 0.4% sulforhodamine B in 1% acetic acid for 30 minutes, washed 4 times with 1% acetic acid, and air-dried again. After 5 minutes agitation in 10 mM Tris solution, the absorbance of each well was measured at 530 nm using Benchmark Plus Microplate reader (Bio-Rad Laboratories, Hercules, Calif.).
(§4) To translate the OD530 values into the number of live cells in each well, the OD530 values were compared to those on standard OD530—versus—cell number curves generated for each cell line. The percent survival was calculated using the formula: % Survival=live cell number [test]/live cell number [control]×100
(§5) The IC50 values were calculated by non-linear regression analysis.

The next test concerns Caki-1. The experiment in a line: Cell growth inhibition assay (SRB), Caki-1. Format: cell-based, Human. Particulars: Caki-1 (kidney), 96 hours.
From the text: as §1, §2, §3, §4, §5

A further test concerns Hs 578T. The experiment in a line: Cell growth inhibition assay (SRB), Hs 578T. Format: cell-based, Human. Conditions: Hs 578T (breast), 96 hours.
From the text: as §1, §2, §3, §4, §5

Another test concerns Lox IMVI. The experiment in a line: Cell growth inhibition assay (SRB), Lox IMVI. Conditions: Lox IMVI (melanoma), 96 hours. It is filed as cell-based, Human.
From the text: as §1, §2, §3, §4, §5

In another test the test system is MCF-7. The experiment in a line: Cell growth inhibition assay (SRB), MCF-7. Particulars: MCF-7 (breast, hormone-dependent), 96 hours. It is filed as cell-based, Human.
From the text: as §1, §2, §3, §4, §5

The subject of the next test is HepG2. The experiment in a line: Cell growth inhibition assay (SRB), HepG2. Format: cell-based, Human. Conditions: HepG2 (liver), 96 hours, read-out: Inhibition of cell growth (IC50, μM) HepG 2.
From the text: as §1, §2, §3, §4, §5

A further test deals with U251. The experiment in a line: Cell growth inhibition assay (SRB), U251. Format: cell-based, Human. Conditions: U251 (brain), 96 hours.
From the text: as §1, §2, §3, §4, §5

The subject of a further test is UMRC2. The experiment in a line: Cell growth inhibition assay (SRB), UMRC2. Format: cell-based, Human. Particulars: UMRC2 (kidney), 96 hours.
From the text: as §1, §2, §3, §4, §5

A further test concerns PANC-1. The test can be described thus: Cell growth inhibition assay (SRB), PANC-1. It is filed as cell-based, Human. Conditions: PANC-1 (pancreas), 96 hours.
From the text: as §1, §2, §3, §4, §5

The test system of another test is OVCAR-3. The test can be described thus: Cell growth inhibition assay (SRB), OVCAR-3. Format: cell-based, Human. Particulars: OVCAR-3 (ovary), 96 hours.
From the text: as §1, §2, §3, §4, §5

For another test, the system named is HT-29. The test can be described thus: Cell growth inhibition assay (SRB), HT-29. It is filed as cell-based, Human. Particulars: HT-29 (colon), 96 hours.
From the text: as §1, §2, §3, §4, §5

The subject of the next test is A549. The experiment in a line: Cell growth inhibition assay (SRB), A549. Format: cell-based, Human. Particulars: A549 (lung), 96 hours.
From the text: as §1, §2, §3, §4, §5

Another test has as its system HeLa. The experiment in a line: Cell growth inhibition assay (SRB), HeLa. Format: cell-based, Human. Particulars: HeLa (cervix), 96 hours.
From the text: as §1, §2, §3, §4, §5

A further test has as its system PC3. The test can be described thus: Cell growth inhibition assay (SRB), PC3. Conditions: PC3 (prostate), 96 hours. Format: cell-based, Human.
From the text: as §1, §2, §3, §4, §5

For the next test, the system named is MKN-45. The test can be described thus: Cell growth inhibition assay (SRB), MKN-45. Format: cell-based, Human. Particulars: MKN-45 (stomach), 96 hours.
From the text: as §1, §2, §3, §4, §5

Test [1] concerns 15 human tumor cell lines. The experiment in a line: Cell growth inhibition assay (SRB), summary over the panel of cell lines. It is filed as cell-based. Particulars: four of the tested cell lines. From the text:
Cancer cells used in this study to determine the effect of quinazoline compounds were obtained from the following sources: Human OVCAR-3 (ovary), MCF-7 (breast, hormone-dependent), Hs 578T (breast), MDA-MB-231 (breast), HeLa (cervix), PC3 (prostate), HepG2 (liver), A549 (lung), Caki-1 (kidney), HT-29 (colon), HCT116 (colon) and PANC-1 (pancreas) from the American Type Culture Collection (ATCC) (Manassas, Va.); U251 (brain) from Riken (Japan); MKN-45 (stomach) from DSMZ (Germany); UMRC2 (kidney) and Lox IMVI (melanoma) from the United States National Cancer Institute (Bethesda, Md.). […]
The growth inhibition of the substituted quinazoline derivative compounds against a variety of human tumor cells was evaluated. […]
The growth inhibition assay of various compounds against 15 human tumor cell lines was performed using the Sulforhodamnine B (“SRB”) method (Skehan et al., J. National Cancer Institute, 82: 1107-1112 (1990)). […] After 5 minutes agitation in 10 mM Tris solution, the absorbance of each well was measured at 530 nm using Benchmark Plus Microplate reader (Bio-Rad Laboratories, Hercules, Calif.). […]
The IC50 values were calculated by non-linear regression analysis. […]

On to `FC(F)(F)c1ccccc1CNc1ncnc2ccc(Br)cc12` [RX-1260], for which the IC50 in the test on MDA-MB-231 was over 3 µM; in the test on Caki-1, over 3 µM; in the test on Hs 578T it was over 3 µM; in the test with Lox IMVI it was over 3 µM; with MCF-7, 0.74 µM; in the test with HepG2, 2.25 µM. Also, the IC50 is 0.69 µM in the test on U251; over 3 µM in the test with UMRC2; over 3 µM in the test on PANC-1; over 3 µM with OVCAR-3; over 3 µM with HT-29; over 3 µM with A549. Besides, the IC50 with HeLa, in the test on PC3 and in the test with MKN-45 was over 3 µM throughout.
In the case of `Fc1cc(Cl)ccc1Nc1ncnc2ccc(I)cc12` [RX-1701], the IC50 in the test on MDA-MB-231 was over 3 µM; with Caki-1, 2.85 µM; in the test with Hs 578T it was over 3 µM; with Lox IMVI it was over 3 µM; in the test with MCF-7 it was 1.36 µM; in the test with HepG2, 1.16 µM. Also, the IC50 in the test on U251 is 2.19 µM; with UMRC2, over 3 µM; in the test on PANC-1, over 3 µM; in the test on OVCAR-3, over 3 µM; in the test with HT-29, over 3 µM; with A549 it was over 3 µM. The IC50 in the test with HeLa, with PC3 and in the test on MKN-45 was over 3 µM each time.
Compound `CC(C)Nc1ncnc2cc3[nH]cnc3cc12` [RX-1834] gave a pIC50 in [1] of over 6.70. Moreover, the IC50 came to 0.53 µM in the test with MDA-MB-231; 0.65 µM with Caki-1; 0.79 µM in the test on Hs 578T; 0.67 µM in the test on Lox IMVI; 0.11 µM in the test with MCF-7; 0.18 µM with HepG2. Further, the IC50 is 0.13 µM in the test with U251; 2.24 µM in the test with UMRC2; over 3 µM in the test on PANC-1; 0.48 µM in the test on OVCAR-3; 0.24 µM in the test on HT-29; 0.66 µM in the test on A549. For the same compound, the IC50 with HeLa turned out to be 1.06 µM; in the test on PC3, 1.03 µM; with MKN-45, 0.1 µM.
As to `Cc1cccc2ncnc(NCCc3ccc(F)cc3)c12` [RX-1541], the IC50 is 0.47 µM in the test with MDA-MB-231; over 3 µM with Caki-1; 0.53 µM with Hs 578T; 2.96 µM with Lox IMVI; 1.26 µM in the test on MCF-7; 0.91 µM with HepG2. Moreover, the IC50 came out at 1.78 µM in the test with U251; 0.37 µM with UMRC2; 0.22 µM in the test with PANC-1; 2.86 µM in the test on OVCAR-3; 1.26 µM with HT-29; 1.89 µM in the test on A549. Further, the IC50 in the test on HeLa, in the test on PC3 and in the test with MKN-45 was over 3 µM each time.
In the case of `Fc1cccc(CCNc2ncnc3ccc(I)cc23)c1` [RX-1668], the IC50 was over 3 µM in the test on MDA-MB-231; 2.93 µM in the test on Caki-1; 0.89 µM in the test on Hs 578T; over 3 µM in the test with Lox IMVI; 0.23 µM in the test with MCF-7; 0.3 µM in the test with HepG2. Further, the IC50 in the test with U251 is 0.27 µM; with UMRC2 it was 1.83 µM; in the test on PANC-1, 1.83 µM; in the test with OVCAR-3, over 3 µM; with HT-29, over 3 µM; in the test on A549 it was over 3 µM. In addition, the IC50 in the test with HeLa, in the test on PC3 and in the test with MKN-45 was over 3 µM in each case.
For `Cn1cnc2cc3ncnc(NCc4cccc(F)c4)c3cc21` [RX-1881], the IC50 with MDA-MB-231 was over 3 µM; in the test on Caki-1, 2.34 µM; with Hs 578T, over 3 µM; in the test on Lox IMVI it was over 3 µM; in the test with MCF-7, 0.68 µM; with HepG2, 1.29 µM. Besides, the IC50 in the test on U251 is 0.91 µM; in the test on UMRC2 it was over 3 µM; in the test on PANC-1, over 3 µM; with OVCAR-3 it was over 3 µM; with HT-29, over 3 µM; in the test on A549, over 3 µM. For the same compound, the IC50 in the test with HeLa, in the test with PC3 and in the test with MKN-45 was over 3 µM each time.

The record behind these values is US7388014B2, “Quinazoline derivatives and therapeutic use thereof” (Rexahn Pharmaceuticals, Inc., priority 2004, dated 2008).
